Our source for the CC50 and IC50 values is ChEMBL document CHEMBL1140355, “New HIV-1 replication inhibitors of the styryquinoline class bearing aroyl/acyl groups at the C-7 position: synthesis and biological activity” (Bioorg Med Chem Lett, 2005).

Data set [1] is described as follows: Toxicity towards CEM cells determined by standard MTT assay, expressed as concentration required for the survival of 50% cells. The class given is cell-based. As to conditions: human, CEM cells (CCRF-CEM cell line); read-out: TC50 (the source's name). On the technique in general: Tetrazolium dyes change colour on reduction, which living cells bring about.
Data set [2] has as its system Human immunodeficiency virus 1. Kind of data set: Antiviral activity against human immunodeficiency virus type 1 by using MAGI assay. It is filed as functional, organism-based. As to conditions: Human immunodeficiency virus 1, MAGI.
The test system of data set [3] is Human immunodeficiency virus 1. Nature of the data set: Antiviral activity against human immunodeficiency virus type 1 by using MAGI assay; NR = not reached. The class given is functional, organism-based.

Molecules are shown by their SMILES. Bounds are passed on as bounds.

Usually IC50 stands for the midpoint of a concentration-inhibition curve. High values mean weaker potency, low ones greater potency. As to `O=C(O)c1ccc(C(=O)c2ccc3ccc(/C=C/c4ccc(O)c(O)c4)nc3c2O)cc1`, in data set [1], the CC50 is 80 µM. The molecule further showed an IC50 in data set [2] of 40 µM. For the molecule `O=C(c1ccc2ccc(/C=C/c3ccc(O)c(O)c3)nc2c1O)c1cccc2ccccc12`, the IC50 entry in data set [3] is “Not reached”. In addition, in data set [1], the CC50 came out at 1 µM. For `O=C(c1ccccc1)c1ccc2ccc(/C=C/c3ccc(O)c(O)c3)nc2c1O`, in data set [3], the IC50 result is recorded as “Not reached”. Further, the CC50 in data set [1] stood at 3 µM. As to `O=C(c1ccc([N+](=O)[O-])cc1)c1ccc2ccc(/C=C/c3ccc(O)c(O)c3)nc2c1O`, the CC50 in data set [1] is 60 µM. Further, the half-maximal inhibitory concentration (IC50) in data set [2] came out at 2 µM. The like results for `Cc1cc(C(=O)c2ccc3ccc(/C=C/c4ccc(O)c(O)c4)nc3c2O)ccc1[N+](=O)[O-]` were, in that order, 90 µM and 60 µM. The like results for `O=C(O)c1cccc(C(=O)c2ccc3ccc(/C=C/c4ccc(O)c(O)c4)nc3c2O)c1` were, in that order, greater than 100 µM and 63 µM. The like results for `O=C(CCc1ccccc1)c1ccc2ccc(/C=C/c3ccc(O)c(O)c3)nc2c1O` were, in that order, 7 µM and 2 µM. For `O=C(c1cccnc1)c1ccc2ccc(/C=C/c3ccc(O)c(O)c3)nc2c1O`, the CC50 in data set [1] is greater than 100 µM. In data set [2], this molecule yielded an IC50 of 2 µM. In the case of `O=C(c1ccncc1)c1ccc2ccc(/C=C/c3ccc(O)c(O)c3)nc2c1O`, in data set [3], the IC50 entry is given as “Not reached”. Further, the CC50 in data set [1] worked out at 4 µM. Take `O=C(c1ccc(O)cc1)c1ccc2ccc(/C=C/c3ccc(O)c(O)c3)nc2c1O`: the CC50 in data set [1] is 87 µM. The molecule also displayed an IC50 in data set [2] of 6 µM. The like results for `O=C(c1ccccc1[N+](=O)[O-])c1ccc2ccc(/C=C/c3ccc(O)c(O)c3)nc2c1O` were, in that order, 70 µM and 4 µM. For the molecule `O=C(c1ccc(F)c(F)c1)c1ccc2ccc(/C=C/c3ccc(O)c(O)c3)nc2c1O`, the CC50 in data set [1] is 63 µM. The molecule also showed an IC50 in data set [2] of 4 µM. The like results for `O=C(c1cccc([N+](=O)[O-])c1)c1ccc2ccc(/C=C/c3ccc(O)c(O)c3)nc2c1O` were, in that order, 1.5 µM and 0.5 µM.

Regarding `O=C(c1ccccc1O)c1ccc2ccc(/C=C/c3ccc(O)c(O)c3)nc2c1O`, the IC50 entry in data set [3] was “Not reached”. Further, in data set [1], the CC50 is 1 µM. Consider `CCCCCCCCC(=O)c1ccc2ccc(/C=C/c3ccc(O)c(O)c3)nc2c1O`, for which the CC50 in data set [1] was 10 µM. The molecule further yielded an IC50 in data set [2] of 5 µM. Take `O=C(O)c1ccc2ccc(/C=C/c3ccc(O)c(O)c3)nc2c1O`: in data set [1], the CC50 was greater than 100 µM. For `O=C(O)c1ccccc1C(=O)c1ccc2ccc(/C=C/c3ccc(O)c(O)c3)nc2c1O`, the CC50 in data set [1] was greater than 100 µM. The IC50 in data set [2] came to 35 µM. Consider `O=C(c1ccccn1)c1ccc2ccc(/C=C/c3ccc(O)c(O)c3)nc2c1O`, for which the IC50 entry in data set [3] was “Not reached”. Also, the CC50 in data set [1] was 15 µM.
